In brackets after ≈: the same amount, converted by molar mass.

This note sets out measurements from patent US6066635A, “Avrainvillamide, a cytotoxic marine natural product, and derivatives thereof” (University of California, San Diego, priority 1999, dated 2000).

Assay type in all cases: cell-based
The test system of data set [1] is human colon HCT116 cells. Kind of data set: HCT-116 cytotoxicity assay. Conditions: human colon HCT-116 cells; concentration required to inhibit cell proliferation by 50% vs untreated cells. The source says: (§1) Thus, the invention provides a method of treating a cancer patient by administering to the patient a compound of the invention in an amount sufficient to reduce or inhibit proliferation of cancer cells in the patient.

The subject of data set [2] is melanoma MALME-3M cells. Kind of data set: in vitro cytotoxicity at the National Cancer Institute (NCI 60 cell panel), melanoma. Conditions: Homo sapiens, inhibition of cell proliferation by 50%.
Excerpt: as §1

The subject of data set [3] is breast cancer cells βT-549. Briefly: in vitro cytotoxicity at the National Cancer Institute (NCI 60 cell panel), breast cancer βT-549. Conditions: inhibition of cell proliferation by 50%.
Excerpt: as §1

The subject of data set [4] is breast cancer cells T-47D. Briefly: in vitro cytotoxicity at the National Cancer Institute (NCI 60 cell panel), breast cancer T-47D. The conditions noted are these: Homo sapiens, T47D; breast cancer T-47D (printed T-470); inhibition of cell proliferation by 50%.
Excerpt: as §1

Data set [5] relates to tumor cell lines in the NCI 60 cell panel. Briefly: cytotoxic effect in the NCI 60 cell panel.
Excerpt: as §1

Regarding `CC1(C)C=Cc2c(ccc3c2[N+]([O-])=C2C3=CC34NC(=O)C5(CCCN5C3=O)CC4C2(C)C)O1` (stereo not drawn) [Avrainvillamide], the IC50 was determined as 2 µg/mL (≈ 4.49 µM) in data set [1], 53 nM in data set [2], 34 nM in data set [3] and 72 nM in data set [4]. The “selective in vitro cytotoxicity towards melanoma and breast cancers” value in data set [5] (MALME-3M, βT-549 and T-470) was “significant selective in vitro cytotoxicity”. Moreover, the “cytotoxic effect against a variety of tumor cell lines” value in data set [5] (NCI 60 cell panel) was “dose dependent cytotoxic effect”.

One may read the IC50 as the point on the concentration scale where inhibition reaches its midpoint. Read a low IC50 as inhibition by little substance.
